Measured values as given in patent US9913789B2, “Formulations containing sphinganine” (Evonik Degussa GmbH, priority 2013, dated 2018).

Tests used:
[1] = system: human follicular dermal papilla cells (HFDPCs); assay: MTT assay, stimulation of proliferation of human follicular dermal papilla cells; type: cell-based; details: sphinganine 0.3 μg/ml; creatine 10 μg/ml; caffeine 10 μg/ml; 0.1% (v/v) ethanol; incubation 24 hours
Procedure: The cells were sown in a cell density of about 6300 cells/cm^2 in a T75 bottle with follicle dermal papilla cell growth medium (for short: growth medium) and then incubated at 37° C., 5% CO2. After 1 day, media exchange was carried out. After a further 3 days, the medium was removed, the cells were washed with PBS (phosphate buffered saline) (without Mg^2+ and Ca^2+), detached by accutase treatment; the cell count is determined and then the cells are sown in a concentration of about 5500 cells/cm^2 in new T75 bottles in growth medium and further cultivated under identical conditions as described above. After 1 and 3 days, media exchange was carried out. After 1 further day, the medium was removed, the cells were washed in PBS (without Mg^2+ and Ca^2+), detached by accutase treatment and then sown in a concentration of about 10 000 cells/cm^2 into the cavities of 6-well cell culture plates with 2.5 ml of growth medium in each case. After 1 day, media exchange was carried out, and the test substances—diluted in fresh medium—were applied. […] All cultivations were carried out in the presence of 0.1% (v/v) ethanol and a corresponding vehicle control was performed at the same time. After incubation for 24 hours, an MTT assay was carried out. The activity in the MTT test indicates the activity of the mitochondrial dehydrogenase and is a marker for the cell vitality and the proliferation capacity. Firstly, a 10 mg/ml stock solution of the MTT reagent (Thiazolyl Blue Tetrazolium Bromide, Sigma Aldrich M5655) in PBS was prepared. The stock solution was then diluted with growth medium to an end concentration of 1 mg/ml MTT reagent. The cells were washed with PBS (without Mg^2+ and Ca^2+) and incubated with 1 ml of growth medium with MTT reagent for 3 h at 37° C. […] The absorption of the extracts was determined by spectrophotometry at a wavelength of 550 nm. The optical density of the extracts from the cells treated only with the vehicle is regarded as the reference (100%), all of the other measured values are quantified relative to the reference sample.

ex vivo hair follicles = ex vivo hair follicles kept in culture; EP0790053; cited from earlier work
[2] = system: in vitro cultivated keratinocytes; details: EP0790053; cited from earlier work

SMILES	cell proliferation (MTT, optical density at 550 nm relative to vehicle control = 100%) [1] [%]	lifespan of the hair follicles (ex vivo hair follicles)	effect on growth of keratinocytes [2]
CCCCCCCCCCCCCCC[C@@H](O)[C@@H](N)CO [sphinganine]	103.9	increases the lifespan of the hair follicles	growth-promoting effect
Cn1c(=O)c2c(ncn2C)n(C)c1=O [caffeine]	102.5	–	–
CN(CC(=O)O)C(=N)N [creatine]	104.0	–	–
